From US6998258B1, “L-pantolactone-hydrolase and a method for producing D-pantolactone” (BASF Aktiengesellschaft, priority 1999, dated 2006)
Where two headings read alike, the source gives them in different places. Square brackets hold non-standard residues; d marks the D form. Peptide text beside a SMILES is read from it. * marks the point of attachment. Sta = CC(C)C[C@H](N)[C@@H](O)CC(=O)O; Isovaleryl = CC(C)CC(=O)*

Tests used:
[1] = system: L-pantolactone hydrolase from Lu681; assay: Substrate specificity of purified L-pantolactone hydrolase from Lu681 (HPLC); format: biochemical, Burkholderia caryophylli
[2] = system: L-pantolactone hydrolase from Lu5351; assay: Substrate specificity of purified L-pantolactone hydrolase from Lu5351 (HPLC); format: biochemical, Agrobacterium radiobacter
[3] = system: L-pantolactone hydrolase from Burkholderia caryophylli Lu681; assay: Inhibition and activation by added substances, standard assay, Lu681 enzyme; format: biochemical
D-pantolactone hydrolase = settings: cited from earlier work
[4] = system: L-pantolactone hydrolase from Agrobacterium radiobacter Lu5351; assay: Inhibition and activation by added substances, standard assay, Lu5351 enzyme; format: biochemical
[5] = system: L-pantolactone hydrolase from Lu681; assay: Optical lipase assay with resorufin ester in microtiter plate; format: biochemical, Burkholderia caryophylli; settings: Lu681 enzyme, 60 to 482 U/l
[6] = system: recombinant 681 lactonase; format: biochemical, Burkholderia caryophylli
[7] = substrate 150 mN, 0.1 U/ml enzyme, 150 mM Pipes pH 6.8
[8] = added substance 1 mM, 150 mM L-pantolactone, 1 h, 30° C., vs no addition
[9] = substrate 50 mN, 0.1 U/ml enzyme, 150 mM Pipes pH 6.8
[10] = substrate 2.5 mN, 0.1 U/ml enzyme, 150 mM Pipes pH 6.8
[11] = substrate 10 mN, 0.1 U/ml enzyme, 150 mM Pipes pH 6.8
[12] = added substance 0.1%, vs no addition

## CCOC(=O)C(C)O (stereo not drawn) [Ethyl (L)(−)-lactate]
[1]; [7]
  Activity: ++ (++: >50 U/l)
[2]; [7]
  Activity: ++ (++: >50 U/l)

## O=C1OC(C(O)CO)C(O)C1O [D-(−)-Gulono-γ-lactone]
[2]; pH 6.8
  Activity: ++ (key: ++: >50 U/l; +: >5 U/l; (+): >0.5 U/l; −: <0.5 U/l)

## [Cl][Ni][Cl] [NiCl2]
[3]
  Relative Activity: 96%

## O=C1OC(C(O)CO)C(O)C1O [D-Galactono-γ-lactone]
[1]; pH 6.8
  Activity: + (key: ++: >50 U/l; +: >5 U/l; (+): >0.5 U/l; −: <0.5 U/l)
[2]; pH 6.8
  Activity: ++ (key: ++: >50 U/l; +: >5 U/l; (+): >0.5 U/l; −: <0.5 U/l)

## O=C1OC(C(O)CO)C(O)C1O [L-(+)-Gulono-γ-lactone]
[1]; [7]
  Activity: + (+: >5 U/l)
[2]; [7]
  Activity: ++ (++: >50 U/l)

## CCCCC1CCCC(=O)O1 (stereo not shown) [δ-Nonalactone]
[1]; pH 6.8
  Activity: + (key: ++: >50 U/l; +: >5 U/l; (+): >0.5 U/l; −: <0.5 U/l)
[2]; pH 6.8
  Activity: ++ (key: ++: >50 U/l; +: >5 U/l; (+): >0.5 U/l; −: <0.5 U/l)

## [Hg+2] [Hg^2+]
D-pantolactone hydrolase
  inhibition of the enzyme: inhibited

## CC#N [Acetonitrile]
[3]
  Relative Activity: 119%

## O[C@H](CS)[C@H](O)CS (racemic) [DTT, Dithiothreitol]
[3]; [8]
  Relative Activity: 99%
[4]; [8]
  Relative Activity: 106%

## CC1CCC(=O)O1 (stereo not shown) [γ-Valerolactone]
[1]; pH 6.8
  Activity: + (key: ++: >50 U/l; +: >5 U/l; (+): >0.5 U/l; −: <0.5 U/l)
[2]; pH 6.8
  Activity: ++ (key: ++: >50 U/l; +: >5 U/l; (+): >0.5 U/l; −: <0.5 U/l)

## CoCl2
[3]
  Relative Activity: 97%

## O=C1CCCCO1 [δ-Valerolactone]
[1]; [9]
  Activity: + (+: >5 U/l)
[2]; [9]
  Activity: ++ (++: >50 U/l)

## [Cl-].[Cl-].[Mg+2] [MgCl2]
[3]
  Relative Activity: 99%
[4]
  Relative Activity: 114%

## O=S(=O)(F)Cc1ccccc1 [PMSF]
[3]
  Relative Activity: 113%

## CCCCCCCCCCCCOCC(COC(=O)CCCC(=O)Oc1ccc2nc3ccc(=O)cc-3oc2c1)OCCCCCCCCCCCC (racemic) [1,2-O-Dilauryl-rac-glycero-3-glutaric acid resorufin ester]
[1]
  Activity: (+) (key: ++: >50 U/l; +: >5 U/l; (+): >0.5 U/l; −: <0.5 U/l)
[2]
  Activity: (+) (key: ++: >50 U/l; +: >5 U/l; (+): >0.5 U/l; −: <0.5 U/l)
[5]
  lipase activity as share of the L-pantolactone hydrolase activity: about 0.05%

## [Cl][Hg][Cl] [HgCl2]
[3]
  Relative Activity: 133%
[4]
  Relative Activity: 170%

## O=C1CCCCCO1 [ε-Caprolactone]
[1]; pH 6.8
  Activity: ++ (key: ++: >50 U/l; +: >5 U/l; (+): >0.5 U/l; −: <0.5 U/l)
[2]; pH 6.8
  Activity: ++ (key: ++: >50 U/l; +: >5 U/l; (+): >0.5 U/l; −: <0.5 U/l)

## O=C1CCc2ccccc2O1 [Dihydrocumarin]
[2]; pH 6.8
  Activity: + (key: ++: >50 U/l; +: >5 U/l; (+): >0.5 U/l; −: <0.5 U/l)

## O=C1CCCO1 [γ-Butyrolactone]
[1]; pH 6.8
  Activity: + (key: ++: >50 U/l; +: >5 U/l; (+): >0.5 U/l; −: <0.5 U/l)
[2]; pH 6.8
  Activity: ++ (key: ++: >50 U/l; +: >5 U/l; (+): >0.5 U/l; −: <0.5 U/l)

## [Cl][Mn][Cl] [MnCl2]
[3]
  Relative Activity: 100%

## CC1(C)COC(=O)C1O [D-Pantolactone]
[1]; [7]
  Activity: − (−: <0.5 U/l)
[6]
  type of inhibition: competitive inhibition
[2]; [7]
  Activity: (+) ((+): >0.5 U/l)

## CO [MeOH]
[3]
  Relative Activity: 100%

## CC(C)CC(=O)N[C@H](C(=O)N[C@H](C(=O)N[C@@H](CC(C)C)[C@@H](O)CC(=O)N[C@@H](C)C(=O)N[C@@H](CC(C)C)[C@@H](O)CC(=O)O)C(C)C)C(C)C [Pepstatin] (Isovaleryl-VV[Sta]A[Sta]-OH)
[3]; [8]
  Relative Activity: 117%

## [Cd+2] [Cd^2+]
D-pantolactone hydrolase
  inhibition of the enzyme: inhibited

## O=S(=O)(O)c1cc[c]([Hg][Cl])cc1 [pCMBS, p-Chloromercuribiphenylsulfonic [sic] acid]
[3]
  Relative Activity: 108%
[4]
  Relative Activity: 112%

## [Cl-].[Cl-].[Zn+2] [ZnCl2]
[3]
  Relative Activity: 113%
[4]
  Relative Activity: 99%

## O=C1O[C@H]([C@@H](O)CO)[C@@H](O)[C@@H]1O [L-Galactono-γ-lactone]
[1]; pH 6.8
  Activity: ++ (key: ++: >50 U/l; +: >5 U/l; (+): >0.5 U/l; −: <0.5 U/l)
[2]; pH 6.8
  Activity: ++ (key: ++: >50 U/l; +: >5 U/l; (+): >0.5 U/l; −: <0.5 U/l)

## [Cu+2] [Cu^2+]
D-pantolactone hydrolase
  inhibition of the enzyme: inhibited

## CC(=O)Oc1cccc2ccccc12 [α-Naphthyl acetate]
[1]; [10]
  Activity: (+) ((+): >0.5 U/l)
[2]; [10]
  Activity: (+) ((+): >0.5 U/l)

## CC1(C)COC(=O)[C@H]1O [S-Pantolactone]
[1]; pH 6.8
  Activity: ++ (key: ++: >50 U/l; +: >5 U/l; (+): >0.5 U/l; −: <0.5 U/l)
[2]; pH 6.8
  Activity: ++ (key: ++: >50 U/l; +: >5 U/l; (+): >0.5 U/l; −: <0.5 U/l)

## CCCCCCCCCCCCOS(=O)(=O)[O-].[Na+] [SDS, Sodium dodecyl sulfate]
[3]; added substance 1%, vs no addition
  Relative Activity: 102%
[4]; added substance 1%, vs no addition, sulfate
  Relative Activity: 74%

## O=C1Cc2cc(O)ccc2O1 [5-Hydroxy-2-coumaranone]
[1]; [10]
  Activity: + (+: >5 U/l)

## [Ca+2].[Cl-].[Cl-] [CaCl2]
[3]
  Relative Activity: 101%
[4]
  Relative Activity: 105%

## Triton
[3]
  Relative Activity: 104%

## [Cl-].[K+] [KCl]
[3]
  Relative Activity: 99%

## OO [H2O2]
[3]
  Relative Activity: 95%

## O=C(O)CC(O)(CC(=O)O)C(=O)O [Citric acid]
[3]; added substance 30 mM, pH 6.4, vs no addition
  Relative Activity: 97%

## O=C1Nc2ccccc2C1=O [Isatin]
[1]; [11]
  Activity: + (+: >5 U/l)
[2]; [11]
  Activity: (+) ((+): >0.5 U/l)

## CCOC(=O)[C@@H](C)O [Ethyl D(+)-lactate]
[1]; [7]
  Activity: + (+: >5 U/l)
[2]; [7]
  Activity: + (+: >5 U/l)

## CC(C)O [Isopropanol]
[3]; added substance 10%, vs no addition
  Relative Activity: 93%

## C[C@H](CCC(=O)NCCC[N+](C)(C)CCCS(=O)(=O)[O-])[C@H]1CC[C@H]2[C@@H]3[C@H](O)C[C@@H]4C[C@H](O)CC[C@]4(C)[C@H]3C[C@H](O)[C@]12C [CHAPS, ([3-Cholamidopropyl]-dimethylammonio)-1-propane-sulfonate]
[3]; [12]
  Relative Activity: 104%
[4]; [12]
  Relative Activity: 100%

## O=C(O)CN(CCN(CC(=O)O)CC(=O)O)CC(=O)O [EDTA, Ethylenediaminetetraacetic acid]
[3]; [8]
  Relative Activity: 97%
D-pantolactone hydrolase; U.S. Pat. No. 5,372,940
  inhibition of the enzyme: inhibited
[4]; [8]
  Relative Activity: 97%

## c1cnc2c(c1)ccc1cccnc12 [o-Phenanthroline]
[3]
  Relative Activity: 95%

## [Cl][Fe][Cl] [FeCl2]
[3]
  Relative Activity: 104%
[4]
  Relative Activity: 108%

## Cl.N [NH4Cl]
[3]
  Relative Activity: 100%
